Measured values: ChEMBL document CHEMBL5678810
Active and inactive are the calls of the source. The calls are words filed in the database; no cut-off is given here.

Assays:
[1] = molecular target: Leucine-rich repeat serine/threonine-protein kinase 2 (Homo sapiens) (UniProt Q5S007); test: Inhibition of LRRK2 phosphorylation at Ser910 residue in EBV immortalized human derived lymphoblastoid cells at 0.01 to 3 uM incubated for 90 mins by immunoblot analysis; format: cell-based; conditions: Lymphoblastoid cell, dose 0.01-3 µM
[2] = system: Tyrosine-protein kinase ABL1 (Homo sapiens), P00519 [F317L]; test: Inhibition of T7 bacteriophage fused human nonphosphorylated ABL1 F317L mutant at 10 uM by KINOMEscan analysis relative to control
[3] = molecular target: Mitogen-activated protein kinase kinase kinase 6 (Homo sapiens) (UniProt O95382); test: Inhibition of T7 bacteriophage fused human ASK2 at 10 uM by KINOMEscan analysis relative to control
Mitogen-activated protein kinase kinase kinase 6 (Homo sapiens), sequence (O95382 whole entry, the tested form may be a part): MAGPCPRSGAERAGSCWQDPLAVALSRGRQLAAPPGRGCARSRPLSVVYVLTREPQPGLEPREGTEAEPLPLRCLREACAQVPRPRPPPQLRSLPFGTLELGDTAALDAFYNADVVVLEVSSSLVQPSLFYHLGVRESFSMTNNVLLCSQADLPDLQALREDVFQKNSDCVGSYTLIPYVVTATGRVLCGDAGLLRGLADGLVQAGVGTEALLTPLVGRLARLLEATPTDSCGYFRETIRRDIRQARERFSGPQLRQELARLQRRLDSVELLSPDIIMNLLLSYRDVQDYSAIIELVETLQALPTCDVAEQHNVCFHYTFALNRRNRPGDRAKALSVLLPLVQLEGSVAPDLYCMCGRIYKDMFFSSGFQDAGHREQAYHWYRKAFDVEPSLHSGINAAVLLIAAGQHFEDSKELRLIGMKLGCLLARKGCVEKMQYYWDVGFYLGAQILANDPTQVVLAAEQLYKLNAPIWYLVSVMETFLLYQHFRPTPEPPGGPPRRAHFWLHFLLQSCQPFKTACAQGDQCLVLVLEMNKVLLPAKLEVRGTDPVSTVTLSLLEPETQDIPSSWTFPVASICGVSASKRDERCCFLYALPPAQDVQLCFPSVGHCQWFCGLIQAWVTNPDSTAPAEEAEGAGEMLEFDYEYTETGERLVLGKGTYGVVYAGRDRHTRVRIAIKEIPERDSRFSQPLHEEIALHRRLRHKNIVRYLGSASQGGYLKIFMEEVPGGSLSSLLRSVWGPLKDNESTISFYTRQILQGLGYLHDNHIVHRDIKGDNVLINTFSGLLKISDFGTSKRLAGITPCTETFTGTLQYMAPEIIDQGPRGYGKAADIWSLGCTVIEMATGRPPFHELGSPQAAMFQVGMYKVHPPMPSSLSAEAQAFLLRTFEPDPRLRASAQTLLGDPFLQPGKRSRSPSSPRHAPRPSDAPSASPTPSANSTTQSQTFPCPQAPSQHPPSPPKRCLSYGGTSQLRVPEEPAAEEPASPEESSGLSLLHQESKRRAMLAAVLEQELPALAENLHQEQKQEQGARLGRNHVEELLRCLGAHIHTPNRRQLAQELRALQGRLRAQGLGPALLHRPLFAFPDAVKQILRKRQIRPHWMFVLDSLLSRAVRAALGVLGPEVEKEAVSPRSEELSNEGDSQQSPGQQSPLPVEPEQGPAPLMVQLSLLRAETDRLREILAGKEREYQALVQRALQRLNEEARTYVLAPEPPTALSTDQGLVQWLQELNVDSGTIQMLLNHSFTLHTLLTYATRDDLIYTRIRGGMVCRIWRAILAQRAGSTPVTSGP

[4] = molecular target: Serine/threonine-protein kinase B-raf (Homo sapiens) (UniProt P15056); test: Inhibition of T7 bacteriophage fused human BRAF at 10 uM by KINOMEscan analysis relative to control
[5] = molecular target: Serine/threonine-protein kinase BRSK1 (Homo sapiens) (UniProt Q8TDC3); test: Inhibition of T7 bacteriophage fused human BRSK1 at 10 uM by KINOMEscan analysis relative to control
[6] = molecular target: Cyclin-dependent kinase 2 (Homo sapiens) (UniProt P24941); test: Inhibition of T7 bacteriophage fused human CDK2 at 10 uM by KINOMEscan analysis relative to control
[7] = molecular target: Cyclin-dependent kinase 8 (Homo sapiens) (UniProt P49336); test: Inhibition of T7 bacteriophage fused human CDK8 at 10 uM by KINOMEscan analysis relative to control
[8] = molecular target: Megakaryocyte-associated tyrosine-protein kinase (Homo sapiens) (UniProt P42679); test: Inhibition of T7 bacteriophage fused human CTK at 10 uM by KINOMEscan analysis relative to control
[9] = molecular target: Ephrin type-A receptor 1 (Homo sapiens) (UniProt P21709); test: Inhibition of T7 bacteriophage fused human EPHA1 at 10 uM by KINOMEscan analysis relative to control
[10] = system: Receptor-type tyrosine-protein kinase FLT3 (Homo sapiens), P36888 [R834Q]; test: Inhibition of T7 bacteriophage fused human FLT3 R834Q mutant at 10 uM by KINOMEscan analysis relative to control
[11] = molecular target: Tyrosine-protein kinase JAK1 (Homo sapiens) (UniProt P23458); test: Inhibition of T7 bacteriophage fused human JAK1 JH1catalytic domain at 10 uM by KINOMEscan analysis relative to control
[12] = molecular target: Serine/threonine-protein kinase 10 (Homo sapiens) (UniProt O94804); test: Inhibition of T7 bacteriophage fused human LOK at 10 uM by KINOMEscan analysis relative to control
Serine/threonine-protein kinase 10 (Homo sapiens), sequence (O94804 whole entry, looked up, the tested form may be a part): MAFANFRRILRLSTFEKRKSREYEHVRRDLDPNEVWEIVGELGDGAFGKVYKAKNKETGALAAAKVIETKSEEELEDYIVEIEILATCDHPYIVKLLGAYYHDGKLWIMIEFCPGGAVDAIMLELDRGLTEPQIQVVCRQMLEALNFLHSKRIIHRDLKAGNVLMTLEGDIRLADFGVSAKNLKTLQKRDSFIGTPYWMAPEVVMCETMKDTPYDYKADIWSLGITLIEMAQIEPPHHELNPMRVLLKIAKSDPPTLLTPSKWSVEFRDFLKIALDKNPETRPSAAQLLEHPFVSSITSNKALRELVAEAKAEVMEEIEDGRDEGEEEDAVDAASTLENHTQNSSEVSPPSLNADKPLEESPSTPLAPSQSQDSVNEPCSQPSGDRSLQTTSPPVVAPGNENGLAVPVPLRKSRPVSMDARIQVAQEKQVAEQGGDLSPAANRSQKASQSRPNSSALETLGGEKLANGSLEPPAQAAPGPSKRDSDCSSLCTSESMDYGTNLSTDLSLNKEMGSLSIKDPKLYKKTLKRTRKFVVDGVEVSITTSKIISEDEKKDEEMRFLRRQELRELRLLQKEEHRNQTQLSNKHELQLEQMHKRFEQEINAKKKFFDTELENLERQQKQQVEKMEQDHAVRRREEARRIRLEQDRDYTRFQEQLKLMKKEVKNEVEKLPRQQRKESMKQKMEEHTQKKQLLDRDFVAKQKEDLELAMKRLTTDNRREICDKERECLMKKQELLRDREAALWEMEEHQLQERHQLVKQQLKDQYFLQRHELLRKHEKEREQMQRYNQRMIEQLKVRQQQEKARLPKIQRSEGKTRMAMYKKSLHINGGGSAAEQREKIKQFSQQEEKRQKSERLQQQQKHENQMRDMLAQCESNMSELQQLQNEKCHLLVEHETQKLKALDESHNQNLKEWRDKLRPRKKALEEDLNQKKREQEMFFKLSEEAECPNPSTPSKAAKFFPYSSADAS

[13] = molecular target: Tyrosine-protein kinase Lyn (Homo sapiens) (UniProt P07948); test: Inhibition of T7 bacteriophage fused human LYN at 10 uM by KINOMEscan analysis relative to control
[14] = molecular target: Mitogen-activated protein kinase kinase kinase 13 (Homo sapiens) (UniProt O43283); test: Inhibition of T7 bacteriophage fused human LZK at 10 uM by KINOMEscan analysis relative to control
[15] = molecular target: MAP kinase-activated protein kinase 2 (Homo sapiens) (UniProt P49137); test: Inhibition of T7 bacteriophage fused human MAPKAPK2 at 10 uM by KINOMEscan analysis relative to control
[16] = molecular target: Maternal embryonic leucine zipper kinase (Homo sapiens) (UniProt Q14680); test: Inhibition of T7 bacteriophage fused human MELK at 10 uM by KINOMEscan analysis relative to control
Maternal embryonic leucine zipper kinase (Homo sapiens), sequence (Q14680 whole entry, looked up, the tested form may be a part): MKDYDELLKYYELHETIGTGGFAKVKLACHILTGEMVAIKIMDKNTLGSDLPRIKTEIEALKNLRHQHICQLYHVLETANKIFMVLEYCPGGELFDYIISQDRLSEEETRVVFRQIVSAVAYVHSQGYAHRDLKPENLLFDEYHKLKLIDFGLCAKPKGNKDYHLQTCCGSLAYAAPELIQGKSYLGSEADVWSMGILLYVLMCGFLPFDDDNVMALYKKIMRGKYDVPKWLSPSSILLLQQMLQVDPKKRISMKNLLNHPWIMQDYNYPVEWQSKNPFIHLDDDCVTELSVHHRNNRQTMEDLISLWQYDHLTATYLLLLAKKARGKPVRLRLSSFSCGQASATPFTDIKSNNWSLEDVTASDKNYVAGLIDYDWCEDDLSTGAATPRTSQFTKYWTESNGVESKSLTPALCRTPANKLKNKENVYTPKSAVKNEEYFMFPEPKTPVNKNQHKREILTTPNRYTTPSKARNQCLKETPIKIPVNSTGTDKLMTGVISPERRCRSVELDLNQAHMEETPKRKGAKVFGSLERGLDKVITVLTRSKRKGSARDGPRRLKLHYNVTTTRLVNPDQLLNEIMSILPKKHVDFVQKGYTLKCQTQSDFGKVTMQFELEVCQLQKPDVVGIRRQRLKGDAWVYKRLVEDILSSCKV

[17] = molecular target: Mitogen-activated protein kinase 12 (Homo sapiens) (UniProt P53778); test: Inhibition of T7 bacteriophage fused human p38-gamma at 10 uM by KINOMEscan analysis relative to control
Mitogen-activated protein kinase 12 (Homo sapiens), sequence (P53778 whole entry, the tested form may be a part, canonical isoform): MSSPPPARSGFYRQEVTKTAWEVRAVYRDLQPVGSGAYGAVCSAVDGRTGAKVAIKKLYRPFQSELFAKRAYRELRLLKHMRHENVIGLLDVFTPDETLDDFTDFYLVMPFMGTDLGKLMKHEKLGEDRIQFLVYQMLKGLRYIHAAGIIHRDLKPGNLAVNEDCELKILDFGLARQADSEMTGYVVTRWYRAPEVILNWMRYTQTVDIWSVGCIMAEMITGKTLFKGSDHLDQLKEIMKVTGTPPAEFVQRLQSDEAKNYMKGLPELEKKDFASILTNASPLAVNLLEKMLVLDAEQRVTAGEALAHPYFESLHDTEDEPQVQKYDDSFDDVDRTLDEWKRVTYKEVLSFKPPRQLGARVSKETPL

[18] = molecular target: Phosphorylase b kinase gamma catalytic chain, liver/testis isoform (Homo sapiens) (UniProt P15735); test: Inhibition of T7 bacteriophage fused human PHKG2 at 10 uM by KINOMEscan analysis relative to control
[19] = molecular target: Phosphatidylinositol 4,5-bisphosphate 3-kinase catalytic subunit beta isoform (Homo sapiens) (UniProt P42338); test: Inhibition of T7 bacteriophage fused human PIK3CB at 10 uM by KINOMEscan analysis relative to control
[20] = molecular target: Serine/threonine-protein kinase N2 (Homo sapiens) (UniProt Q16513); test: Inhibition of T7 bacteriophage fused human PKN2 at 10 uM by KINOMEscan analysis relative to control
[21] = molecular target: Protein kinase C eta type (Homo sapiens) (UniProt P24723); test: Inhibition of T7 bacteriophage fused human PRKCH at 10 uM by KINOMEscan analysis relative to control
[22] = molecular target: Serine/threonine-protein kinase D2 (Homo sapiens) (UniProt Q9BZL6); test: Inhibition of T7 bacteriophage fused human PRKD2 at 10 uM by KINOMEscan analysis relative to control
[23] = molecular target: Receptor-interacting serine/threonine-protein kinase 2 (Homo sapiens) (UniProt O43353); test: Inhibition of T7 bacteriophage fused human RIPK2 at 10 uM by KINOMEscan analysis relative to control
Receptor-interacting serine/threonine-protein kinase 2 (Homo sapiens), sequence (O43353 whole entry, the tested form may be a part): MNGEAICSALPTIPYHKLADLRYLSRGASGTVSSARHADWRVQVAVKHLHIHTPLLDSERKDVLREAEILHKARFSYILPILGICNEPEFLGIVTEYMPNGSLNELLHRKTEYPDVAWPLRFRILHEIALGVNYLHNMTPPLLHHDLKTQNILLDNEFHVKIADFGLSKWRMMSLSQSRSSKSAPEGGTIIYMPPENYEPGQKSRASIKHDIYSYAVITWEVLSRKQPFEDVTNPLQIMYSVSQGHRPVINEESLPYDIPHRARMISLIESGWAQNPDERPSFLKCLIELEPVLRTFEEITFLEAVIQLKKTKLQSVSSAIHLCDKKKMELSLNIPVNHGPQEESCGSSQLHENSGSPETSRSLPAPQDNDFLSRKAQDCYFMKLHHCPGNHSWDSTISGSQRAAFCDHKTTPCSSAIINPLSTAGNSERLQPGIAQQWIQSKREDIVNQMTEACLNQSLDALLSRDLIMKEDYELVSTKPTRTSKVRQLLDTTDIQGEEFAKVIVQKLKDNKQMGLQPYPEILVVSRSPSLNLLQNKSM

[24] = molecular target: Serine/threonine-protein kinase tousled-like 1 (Homo sapiens) (UniProt Q9UKI8); test: Inhibition of T7 bacteriophage fused human TLK1 at 10 uM by KINOMEscan analysis relative to control
Serine/threonine-protein kinase tousled-like 1 (Homo sapiens), sequence (Q9UKI8 whole entry, the tested form may be a part): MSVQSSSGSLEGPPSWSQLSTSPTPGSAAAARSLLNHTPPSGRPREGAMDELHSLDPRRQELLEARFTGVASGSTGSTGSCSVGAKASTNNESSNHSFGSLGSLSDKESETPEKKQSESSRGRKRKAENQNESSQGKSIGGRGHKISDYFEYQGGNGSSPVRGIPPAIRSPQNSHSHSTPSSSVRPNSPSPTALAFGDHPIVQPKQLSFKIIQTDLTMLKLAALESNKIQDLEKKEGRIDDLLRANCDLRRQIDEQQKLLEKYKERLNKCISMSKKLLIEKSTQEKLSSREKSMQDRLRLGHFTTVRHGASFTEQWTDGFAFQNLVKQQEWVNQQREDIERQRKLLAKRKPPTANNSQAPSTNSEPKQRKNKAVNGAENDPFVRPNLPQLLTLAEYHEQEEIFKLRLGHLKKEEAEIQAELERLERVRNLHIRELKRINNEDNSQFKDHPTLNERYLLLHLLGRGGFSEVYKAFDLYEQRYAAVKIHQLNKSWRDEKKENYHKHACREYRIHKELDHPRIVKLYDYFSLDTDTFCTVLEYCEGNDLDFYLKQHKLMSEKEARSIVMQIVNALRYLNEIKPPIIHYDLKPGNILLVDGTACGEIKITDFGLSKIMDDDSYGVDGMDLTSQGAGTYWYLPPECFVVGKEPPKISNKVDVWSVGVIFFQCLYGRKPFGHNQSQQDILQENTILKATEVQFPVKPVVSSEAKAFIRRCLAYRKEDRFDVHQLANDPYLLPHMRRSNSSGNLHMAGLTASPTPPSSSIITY

[25] = molecular target: Serine/threonine-protein kinase TNNI3K (Homo sapiens) (UniProt Q59H18); test: Inhibition of T7 bacteriophage fused human TNNI3K at 10 uM by KINOMEscan analysis relative to control
[26] = molecular target: Serine/threonine-protein kinase 25 (Homo sapiens) (UniProt O00506); test: Inhibition of T7 bacteriophage fused human YSK1 at 10 uM by KINOMEscan analysis relative to control
Serine/threonine-protein kinase 25 (Homo sapiens), sequence (O00506 whole entry, looked up, the tested form may be a part): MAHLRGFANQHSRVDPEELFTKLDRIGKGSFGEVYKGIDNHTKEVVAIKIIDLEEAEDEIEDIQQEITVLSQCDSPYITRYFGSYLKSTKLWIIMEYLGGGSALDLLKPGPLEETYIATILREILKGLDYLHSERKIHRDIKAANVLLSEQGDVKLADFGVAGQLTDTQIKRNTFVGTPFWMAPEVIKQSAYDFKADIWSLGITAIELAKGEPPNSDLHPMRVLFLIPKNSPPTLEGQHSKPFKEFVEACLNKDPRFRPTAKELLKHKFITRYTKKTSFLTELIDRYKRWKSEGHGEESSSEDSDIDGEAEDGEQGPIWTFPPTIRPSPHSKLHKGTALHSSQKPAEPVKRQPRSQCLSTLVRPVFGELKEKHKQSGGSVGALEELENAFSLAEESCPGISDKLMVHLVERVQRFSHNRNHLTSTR

[27] = molecular target: Dual specificity mitogen-activated protein kinase kinase 2 (Homo sapiens) (UniProt P36507); test: Inhibition of T7 bacteriophage fused human MEK2 at 10 uM by KINOMEscan analysis relative to control; values are per cent of control
[28] = molecular target: Cyclin-dependent kinase-like 3 (Homo sapiens) (UniProt Q8IVW4); test: Inhibition of T7 bacteriophage fused human CDKL3 at 10 uM by KINOMEscan analysis relative to control; values are per cent of control
[29] = molecular target: Fibroblast growth factor receptor 4 (Homo sapiens) (UniProt P22455); test: Inhibition of T7 bacteriophage fused human FGFR4 at 10 uM by KINOMEscan analysis relative to control; values are per cent of control
[30] = molecular target: Myosin light chain kinase 2, skeletal/cardiac muscle (Homo sapiens) (UniProt Q9H1R3); test: Inhibition of T7 bacteriophage fused human MYLK2 at 10 uM by KINOMEscan analysis relative to control; values are per cent of control
[31] = system: Hepatocyte growth factor receptor (Homo sapiens), P08581 [M1250T]; test: Inhibition of T7 bacteriophage fused human MET M1250T mutant at 10 uM by KINOMEscan analysis relative to control; values are per cent of control

Question: How did the inhibition [1] turn out when `CCOc1cc(C(=O)N2CCC(N3CCN(C)CC3)CC2)ccc1Nc1ncc2c(n1)N(C1CCCC1)c1ccccc1C(=O)N2C` was run?
Answer: The inhibition was “inactive”.

Question: Which results are given for `COc1cc(N2CCC(N3CCN(C)CC3)CC2)ccc1Nc1ncc2c(n1)N(C)c1ccccc1C(=O)N2C`?
Answer: inhibition [2]: 14%; inhibition [3]: 100%; inhibition [4]: 81%; inhibition [5]: 81%; inhibition [6]: 100%; inhibition [7]: 100%; inhibition [8]: 100%; inhibition [9]: 100%; inhibition [10]: 100%; inhibition [11]: 100%; inhibition [12]: 100%; inhibition [13]: 100%; inhibition [14]: 100%; inhibition [15]: 100%; inhibition [16]: 100%; inhibition [17]: 76%; inhibition [18]: 33%; inhibition [19]: 96%; inhibition [20]: 95%; inhibition [21]: 100%; inhibition [22]: 59%; inhibition [23]: 100%; inhibition [24]: 100%; inhibition [25]: 100%; inhibition [26]: 68%; residual activity [27]: 99%; residual activity [28]: 83%; residual activity [29]: 28%; residual activity [30]: 98%; residual activity [31]: 96%
